Source: patent publication US5324739A (priority 1993, dated 1994)

Legend:
[1] = tested on: spleen lymphocytes; experiment: ex vivo experiments on spleen lymphocytes after administration to mice; details: 1-10 mg/kg
[2] = tested on: MRC-5 cells; AB1 cells; experiment: activity of second-stage fractions and of the separated isomers (FIG. 1; test not stated); type: cell-based; details: Curacin A vs Curacin B
Experimental: Elution in the second stage was performed within a much smaller range of increasingly greater amounts of ethyl acetate in hexane (1 to 5% in 0.5 to 1.0% increments). […] Fractions 5-9 were pooled and, as such, represented about 200 mg total.
Since the Curacin A and Curacin B compounds were […] to CH2 N2, methylation offered a way to purify the compound from the contaminants in the extract. After reaction of the extract with CH2 N2, the extract was subjected to high performance liquid chromatography (HPLC) in an effort to separate the two isomers. […]
Evaluation of the antiproliferative activity of fractions using MRC-5 cells in culture was performed using the following procedure: Human embryonic lung (MRC-5) cells were obtained from the American Type Culture Collection. […] As in the AB1 cell assay, cell growth and survival was determined calorimetrically, based upon the uptake and reduction of the tetrazolium salt, MTT, to a blue-colored formazan product by mitochondrial enzymes of living cells. The effect of the fractions, as potential inhibitors at different stages of the cell cycle, was determined by performing the assay using both resting and rapidly dividing cells. […]

[3] = tested on: proliferating cells; experiment: administration of formulations containing Curacins A and B to mice (data not shown); type: in vivo; details: various direct methods and oral
Source text: In addition, these tests indicate that Curacins A and B can be administered to animal subjects using dosage protocols that are substantially similar to such protocols used with other antimitotics.

[4] = tested on: brine shrimp; type: in vivo; details: see Example 1
Experimental: In this Example, various concentrations of the organic extract of Lyngbya majuscula were tested using a brine-shrimp assay. The assay was performed according to the following procedure: 24 hours before performing the assay, brine shrimp eggs were hatched in sea water (made by dissolving INSTANT OCEAN dry concentrate in water according to manufacturer's directions). A volume of the organic extract of Lyngbya majuscula was placed in a 50-mL conical flask (weighed beforehand to obtain the tare weight) and the solvent was evaporated. The flask was re-weighed and the tare weight subtracted to yield the weight of non-volatile residue from the extract. The residue was dissolved with a suitable volume of ethanol to yield a concentration of 0.1 mg residue per μL ethanol. Four vials were prepared, the first containing 50 μL of the ethanol solution, the second containing 10 μL of the ethanol solution plus 40 μL ethanol, the third containing 2.5 μL of the ethanol solution plus 47.5 μL ethanol, and the fourth containing none of the solution and 50 μL ethanol (serving as a negative control). Between 10 and 15 live brine shrimp were placed in each vial and stored for 24 hours, after which the number of live and dead shrimp were tallied for each vial. […]

[5] = tested on: 60 different human tumor cell lines; details: for cytotoxicity: cancer cell lines
Experimental: In these examples, an extract of Lyngbya majuscula containing Curacins A and B was subjected to the drug screening procedure employed by the National Cancer Institute for the screening of drugs having possible anticancer utility.
The screening procedure employed a diverse, disease-oriented panel consisting of 60 different human tumor cell lines organized into seven disease-specific subpanels. The extract was tested over a wide range of concentrations for cytotoxic or growth-inhibitory effects against each cell line comprising the panel. The seven subpanels represented diverse histologies (leukemias, melanomas, and tumors of the lung, colon, kidney, ovary, and brain).
The extract was tested over two days in which the cells were continuously exposed to five log10 -spaced concentrations of the drug starting at 10^-4 μg/mL. The tests produced 60 individual dose-response curves, one for each cell line (i.e., one for each example).
To produce data for the mean-graph format shown in FIG. 7, a concentration of the extract that produced a target level response was calculated for each cell line. Three different response parameters were evaluated. The first response parameter was the "GI50," which is the concentration of the extract that produced an apparent 50% decrease in the number of tumor cells relative to the appropriate control (not exposed to extract) at the end of the incubation period. The second response parameter was the "TGI," which is the concentration at which the number of tumor cells remaining at the end of the incubation period substantially equaled the number of tumor cells existing at the start of the incubation period. The third response parameter was the "LC50," which is the concentration of extract that caused an apparent 50 percent reduction in the number of tumor cells relative to the appropriate control (not exposed to extract) at the start of the incubation period.
In a typical GI50 mean graph (e.g., left graph of FIG. 7), the relative position of the vertical reference line along the horizontal concentration axis is obtained by averaging the negative log10 GI50 values for all the cell lines tested against the extract. Horizontal bars are then plotted for the individual negative log10 GI50 values of each cell line relative to the vertical reference line. […] The length of a bar is proportional to the difference between the log10 GI50 value obtained with the particular cell line and the mean (represented by the vertical reference line).
COMPARE is used to rank the similarity of the mean graph profile of the sample extract or drug to the patterns of all the other compounds in the NCI screening database or a defined subset thereof.

[6] = tested on: MRC-5 cells; experiment: cytotoxicity / antiproliferative assay on dividing and confluent MRC-5 cells (MTT); type: cell-based, human; details: proliferating vs quiescent cells
Experimental: Evaluation of the antiproliferative activity of fractions using MRC-5 cells in culture was performed using the following procedure: Human embryonic lung (MRC-5) cells were obtained from the American Type Culture Collection. The cells were grown in Eagle's Minimum Essential Medium with Earle's salts (EMEM, JRH Bioscience) supplemented with 10% fetal calf serum (Hyclone), 0.75 mg/mL NaHCO3, 100 units of penicillin per mL, and 100 μg streptomycin per mL (Gibco Labs). As in the AB1 cell assay, cell growth and survival was determined calorimetrically, based upon the uptake and reduction of the tetrazolium salt, MTT, to a blue-colored formazan product by mitochondrial enzymes of living cells. The effect of the fractions, as potential inhibitors at different stages of the cell cycle, was determined by performing the assay using both resting and rapidly dividing cells. […] At the end of the incubation, the medium was aspirated, the cells were rinsed once using PBS, and 1.0 mg/mL of MTT was added to each well. The plates were incubated with MTT for three hours, after which the MTT was aspirated and isopropanol was added to dissolve any formazen crystals that formed. Plates were "read" on an Elisa reader at 570 nm (principal wavelength) and again at 650 wavelength (reference wavelength) to correct for non-specific background absorbance, using a Thermomax Spectrophotometer (Molecular Devices). […]

SMILES	effect against spleen lymphocytes [1]	activity of Curacin A relative to Curacin B (times more active) [2]	bioavailability [3]	effectiveness in vivo against proliferating cells [3]	effectiveness for reducing a population of representative arthropods (brine shrimp) [4]	mode of action indicated by COMPARE analysis ([5]; COMPARE data, Tables 1 and 2)	cytotoxicity [5]	antiproliferative activity against living cells in culture ([5]; living cells in culture)	antimitotic activity ([5]; various tests)	activity against proliferating versus quiescent cells [6]
C=CC[C@@H](CC/C(C)=C/C=C/CC/C=C\[C@@H]1CSC([C@@H]2C[C@@H]2C)=N1)OC [Curacin A]	substantial effect against spleen lymphocytes	about 10^2	bioavailable	effective in vivo against proliferating cells	effectiveness	functions as an antimitotic	cytotoxic	substantial antiproliferative activity	substantial antimitotic activity	more active against proliferating cells than against quiescent cells
C=CC[C@@H](CC/C(C)=C/C=C\CC/C=C\[C@@H]1CSC([C@@H]2C[C@@H]2C)=N1)OC [Curacin B]	substantial effect against spleen lymphocytes	–	bioavailable	effective in vivo against proliferating cells	–	–	cytotoxic	–	–	more active against proliferating cells than against quiescent cells
